Our source for the CC50 and EC50 values is patent US20190375708A1 (VenatoRx Pharmaceuticals, Inc., priority 2018, published 2019).

The nature of data set [1]: In vitro cytotoxicity assay (MTT cell viability) in HepG2 cells. The class given is cell-based, human. To be noted: human. The essentials:
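Read-out: MTT formazan absorbance at 492 nm, expressed as % of vehicle signal; CC50 by 4-parameter non-linear regression. Parental HepG2, 20,000 cells/well, treated 7 days with compound from 30 μM down to 1.0 nM.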

The test system of data set [2] is HBV replication in HepAD38 cells. In words: Anti-HBV replication assay in HepAD38 cells (QPCR of extracellular HBV DNA). Type of data set: cell-based, HBV (genotype D, serotype ayw). Particulars: Hepatitis B virus, 168 h, 7 days incubation, extracellular HBV DNA by QPCR, read-out: Anti-HBV EC50. Summed up:
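EC50 values reflect 50% reduction of extracellular HBV DNA, measured by QPCR after 7-day treatment of tetracycline-deprived HepAD38 cells with compound […].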

Compound `Cc1nc(C2(NC(=O)C(=O)c3c(C)c(C(=O)Nc4ccc(F)c(C)c4)c(C)n3C)CCCC2)no1` [Example 158, N-(4-fluoro-3-methylphenyl)-1,2,4-trimethyl-5-(2-((1-(5-methyl-1,2,4-oxadiazol-3-yl)cyclopentyl)amino)-2-oxoacetyl)-1H-pyrrole--3 carboxamide] had a CC50 at 7 days in data set [1] above 30000 nM. For the same compound, the EC50 in data set [2] was below 50 nM.
As for `Cc1c(C(=O)Nc2ccc(F)c(F)c2)c2n(c1C(=O)C(=O)NCC(C)(C)CO)CCCC2` [Example 461, N-(3,4-difluorophenyl)-3-(2-((3-hydroxy-2,2-dimethylpropyl)amino)-2-oxoacetyl)-2-methyl-5,6,7,8-tetrahydroindolizine-1-carboxamide], the CC50 at 7 days in data set [1] is 5000 to 30000 nM. Further, the EC50 in data set [2] is below 50 nM.
The like results for `Cc1cc(NC(=O)c2c(C)c(C(=O)C(=O)NC3(C(F)(F)F)CCOCC3)n(C)c2C)cnc1F` [Example 163, N-(6-fluoro-5-methylpyridin-3-yl)-1,2,4-trimethyl-5-(2-oxo-2-((4-(trifluoromethyl)tetrahydro-2H-pyran-4-yl)amino)acetyl)-1H-pyrrole-3-carboxamide] were, in that order, above 30000 nM and above 1000 nM.
The like results for `Cc1cc(NC(=O)c2c(C)c(C(=O)C(=O)NOC(C)(C)C)n(C)c2C)ccc1F` [Example 70, 5-(2-(tert-butoxyamino)-2-oxoacetyl)-N-(4-fluoro-3-methylphenyl)-1,2,4-trimethyl-1H-pyrrole-3-carboxamide] were, in that order, above 30000 nM and below 50 nM.
The compound `O=C(N[C@H]1CCC[C@H]1O)C(=O)c1c(Cl)c(C(=O)Nc2ccc(F)c(F)c2)c2n1CCC2` [Example 571, 6-chloro-N-(3,4-difluorophenyl)-5-(2-(((1S,2R)-2-hydroxycyclopentyl)amino)-2-oxoacetyl)-2,3-dihydro-1H-pyrrolizine-7-carboxamide] gave a CC50 at 7 days in data set [1] above 30000 nM. Moreover, in data set [2], the EC50 was 50 to 499 nM.
`Cc1cc(NC(=O)c2c(C)c(C(=O)C(=O)NC3CC[C@@H](O)[C@@H](O)CC3)n(C)c2C)ccc1F` (stereo partly drawn) [Example 713, 5-(2-(((4R,5S)-4,5-dihydroxycycloheptyl)amino)-2-oxoacetyl)-N-(4-fluoro-3-methylphenyl)-1,2,4-trimethyl-1H-pyrrole-3-carboxamide] had a CC50 at 7 days in data set [1] above 30000 nM. In addition, in data set [2], the EC50 is below 50 nM.
`Cc1cc(NC(=O)c2cc(C(=O)C(=O)NC(C)(C)CO)n3c2CCCC3)cc(F)c1F` [Example 425, N-(3,4-difluoro-5-methylphenyl)-3-(2-((1-hydroxy-2-methylpropan-2-yl)amino)-2-oxoacetyl)-5,6,7,8-tetrahydroindolizine-1-carboxamide] gave a CC50 at 7 days in data set [1] above 30000 nM. Further, in data set [2], the EC50 lay in the range of 50 to 499 nM.
In turn, `Cc1cc(NC(=O)c2c(C)c(C(=O)C(=O)NC3CC(=O)NC(=O)C3)n(C)c2C)ccc1F` [Example 610, 5-(2-((2,6-dioxopiperidin-4-yl)amino)-2-oxoacetyl)-N-(4-fluoro-3-methylphenyl)-1,2,4-trimethyl-1H-pyrrole-3-carboxamide] showed a CC50 at 7 days in data set [1] above 30000 nM. For the same compound, in data set [2], the EC50 was below 50 nM.
For `Cc1cc(NC(=O)c2c(C)c(C(=O)C(=O)N[C@H]3c4ccccc4C[C@H]3O)n(C)c2C)ccc1F` [Example 260, N-(4-fluoro-3-methylphenyl)-5-(2-(((1S,2R)-2-hydroxy-2,3-dihydro-1H-inden-1-yl)amino)-2-oxoacetyl)-1,2,4-trimethyl-1H-pyrrole-3-carboxamide], in that order: 5000 to 30000 nM and below 50 nM.
For `Cc1noc([C@H](C)NC(=O)C(=O)c2c(Cl)c(C(=O)Nc3ccc(F)c(F)c3)c3n2CCC3)n1` [Example 568, (S)-6-chloro-N-(3,4-difluorophenyl)-5-(2-((1-(3-methyl-1,2,4-oxadiazol-5-yl)ethyl)amino)-2-oxoacetyl)-2,3-dihydro-1H-pyrrolizine-7-carboxamide], in that order: 5000 to 30000 nM and below 50 nM.
Turning to `Cc1c(C(=O)Nc2ccn(C)n2)c2n(c1C(=O)C(=O)NC(C)(C)CO)CCCC2` [Example 756, 3-(2-((1-hydroxy-2-methylpropan-2-yl)amino)-2-oxoacetyl)-2-methyl-N-(1-methyl-1H-pyrazol-3-yl)-5,6,7,8-tetrahydroindolizine-1-carboxamide], the CC50 at 7 days in data set [1] was above 30000 nM. Moreover, in data set [2], the EC50 was 50 to 499 nM.
With `Cc1cc(NC(=O)c2c(C)c(C(=O)C(=O)NC3CCS(=O)(=O)C(C)(C)C3)n(C)c2C)ccc1F` (centres unmarked) [Example 623, 5-(2-((2,2-dimethyl-1,1-dioxidotetrahydro-2H-thiopyran-4-yl)amino)-2-oxoacetyl)-N-(4-fluoro-3-methylphenyl)-1,2,4-trimethyl-1H-pyrrole-3-carboxamide], the CC50 at 7 days in data set [1] was above 30000 nM. Further, the EC50 in data set [2] is below 50 nM.
For `Cc1cc(NC(=O)c2c(C)c(C(=O)C(=O)NCC(C)(C)O)n(CCF)c2C)ccc1F` [Example 178, N-(4-fluoro-3-methylphenyl)-1-(2-fluoroethyl)-5-(2-((2-hydroxy-2-methylpropyl)amino)-2-oxoacetyl)-2,4-dimethyl-1H-pyrrole-3-carboxamide], in that order: 5000 to 30000 nM and 50 to 499 nM.
In data set [1], `Cc1cc(NC(=O)c2cc(C(=O)C(=O)N[C@H](C)C(F)(F)F)n3c2CCCC3)ccc1F` [Example 408, (R)-N-(4-fluoro-3-methylphenyl)-3-(2-oxo-2-((1,1,1-trifluoropropan-2-yl)amino)acetyl)-5,6,7,8-tetrahydroindolizine-1-carboxamide] had a half-maximal cytotoxic concentration (CC50) at 7 days above 30000 nM. Moreover, the EC50 in data set [2] is 50 to 499 nM.
With `C#CCNC(=O)C(=O)c1c(C)c(C(=O)Nc2ccc(F)c(C)c2)c(C)n1C` [Example 275, N-(4-fluoro-3-methylphenyl)-1,2,4-trimethyl-5-(2-oxo-2-(prop-2-yn-1-ylamino)acetyl)-1H-pyrrole-3-carboxamide], the CC50 at 7 days in data set [1] is above 30000 nM. For the same compound, the EC50 in data set [2] is below 50 nM.
The compound `Cc1cc(NC(=O)c2c(C)c(C(=O)C(=O)N3C4CCCC3CC(=O)C4)n(C)c2C)cnc1F` [Example 193, N-(6-fluoro-5-methylpyridin-3-yl)-1,2,4-trimethyl-5-(2-oxo-2-(3-oxo-9-azabicyclo[3.3.1]nonan-9-yl)acetyl)-1H-pyrrole-3-carboxamide] returned a CC50 at 7 days in data set [1] above 30000 nM. Further, in data set [2], the EC50 was above 1000 nM.
For `Cc1c(C(=O)Nc2ccc(F)c(Cl)c2)c(C)n(C)c1C(=O)C(=O)NC(C)(C)CO` [Example 189, N-(3-chloro-4-fluorophenyl)-5-(2-((1-hydroxy-2-methylpropan-2-yl)amino)-2-oxoacetyl)-1,2,4-trimethyl-1H-pyrrole-3-carboxamide], in data set [1], the 50% cytotoxic concentration (CC50) at 7 days was above 30000 nM. In addition, the EC50 in data set [2] is below 50 nM.
`CC(=O)N1CCC(C)(NC(=O)C(=O)c2c(C)c(C(=O)Nc3ccc(F)c(C)c3)c(C)n2C)CC1` [Example 612, 5-(2-((1-acetyl-4-methylpiperidin-4-yl)amino)-2-oxoacetyl)-N-(4-fluoro-3-methylphenyl)-1,2,4-trimethyl-1H-pyrrole-3-carboxamide]: the CC50 at 7 days in data set [1] is above 30000 nM. The EC50 in data set [2] is below 50 nM.
Consider `Cc1cc(Cl)cc(NC(=O)c2c(C)c(C(=O)C(=O)N[C@@H]3CCC[C@@H](O)C3)n(C)c2C)c1` [Example 688, N-(3-chloro-5-methylphenyl)-5-(2-(((1R,3R)-3-hydroxycyclohexyl)amino)-2-oxoacetyl)-1,2,4-trimethyl-1H-pyrrole-3-carboxamide], for which, in data set [1], the CC50 at 7 days is above 30000 nM. The EC50 in data set [2] was below 50 nM.
The compound `Cc1c(C(=O)Nc2cccc(C(F)F)c2)c(C)n(C)c1C(=O)C(=O)N[C@@H]1CCC[C@@H](O)C1` [Example 704, N-(3-(difluoromethyl)phenyl)-5-(2-(((1R,3R)-3-hydroxycyclohexyl)amino)-2-oxoacetyl)-1,2,4-trimethyl-1H-pyrrole-3-carboxamide] yielded a CC50 at 7 days in data set [1] above 30000 nM. In addition, the EC50 in data set [2] was below 50 nM.
On to `Cc1cc(NC(=O)c2c(C)c(C(=O)C(=O)N[C@@]3(C)CC[C@H](O)C3)n(C)c2C)ccc1F` [Example 723, N-(4-fluoro-3-methylphenyl)-5-(2-(((1 S,3S)-3-hydroxy-1-methylcyclopentyl)amino)-2-oxoacetyl)-1,2,4-trimethyl-1H-pyrrole-3-carboxamide], for which the CC50 at 7 days in data set [1] is above 30000 nM. Further, the EC50 in data set [2] was below 50 nM.
Regarding `Cc1cc(NC(=O)c2c(C)c(C(=O)C(=O)Nc3ncc(C(F)(F)F)s3)n(C)c2C)ccc1F` [Example 317, N-(4-fluoro-3-methylphenyl)-1,2,4-trimethyl-5-(2-oxo-2-((5-(trifluoromethyl)thiazol-2-yl)amino)acetyl)-1H-pyrrole-3-carboxamide], the CC50 at 7 days in data set [1] was 5000 to 30000 nM. For the same compound, the EC50 in data set [2] is above 1000 nM.
`CC(C)(C)NC(=O)C(=O)c1cc(C(=O)Nc2cc(F)cc(Cl)c2)c2n1CCCC2` [Example 395, 3-(2-(tert-butylamino)-2-oxoacetyl)-N-(3-chloro-5-fluorophenyl)-5,6,7,8-tetrahydroindolizine-1-carboxamide] yielded a CC50 at 7 days in data set [1] of 500 to 4990 nM. In data set [2], the concentration giving a half-maximal response (EC50) is above 1000 nM.
`Cc1c(C(=O)Nc2ccc(F)c(F)c2)c(C)n(C)c1C(=O)C(=O)Nc1cccnc1` [Example 296, N-(3,4-difluorophenyl)-1,2,4-trimethyl-5-(2-oxo-2-(pyridin-3-ylamino)acetyl)-1H-pyrrole-3-carboxamide] returned a CC50 at 7 days in data set [1] above 30000 nM. For the same compound, the EC50 in data set [2] is below 50 nM.
The like results for `Cc1cc(NC(=O)c2c(C)c(C(=O)C(=O)NC3(CO)CCOC3)n(C)c2C)ccc1F` (centres unmarked) [Example 13, N-(4-fluoro-3-methylphenyl)-5-(2-((3-(hydroxymethyl)tetrahydrofuran-3-yl)amino)-2-oxoacetyl)-1,2,4-trimethyl-1H-pyrrole-3-carboxamide] were, in that order, above 30000 nM and below 50 nM.
